# Results: US20100056524A1, “Compound” (priority 2008, published 2010)
# Counter-ions that a name gives are not always drawn.
# Tests used:
# [1] = target: T1, PRAK (Homo sapiens, UniProt Q8IW41); test: PRAK protein kinase assay; format: biochemical; settings: PRAK, read-out: residual kinase activity; for remaining activity at 1 µM: 1 μM compound; for remaining activity at 10 µM: 10 μM compound
# T1 construct: All protein kinases were of human origin and encoded full length proteins, unless indicated otherwise; made in house
# T1 sequence (Q8IW41 1-473): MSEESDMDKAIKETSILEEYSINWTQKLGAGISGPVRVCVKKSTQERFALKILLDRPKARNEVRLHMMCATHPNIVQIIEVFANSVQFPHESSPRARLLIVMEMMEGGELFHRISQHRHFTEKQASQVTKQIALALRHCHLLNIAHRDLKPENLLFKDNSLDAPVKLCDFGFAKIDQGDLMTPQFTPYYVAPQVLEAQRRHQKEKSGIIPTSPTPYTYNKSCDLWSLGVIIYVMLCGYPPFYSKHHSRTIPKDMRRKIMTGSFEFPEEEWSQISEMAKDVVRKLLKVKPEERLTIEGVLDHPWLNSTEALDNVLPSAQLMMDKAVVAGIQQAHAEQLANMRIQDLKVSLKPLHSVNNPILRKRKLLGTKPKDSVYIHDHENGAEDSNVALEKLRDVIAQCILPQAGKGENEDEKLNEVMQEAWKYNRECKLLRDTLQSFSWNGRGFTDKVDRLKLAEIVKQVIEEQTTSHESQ
# Excerpt: (§1) All protein kinases were of human origin and encoded full length proteins, unless indicated otherwise. They were either expressed as glutathione S-transferase (GST) fusion proteins in Escherichia Coli or as hexahistidine (His6)-tagged proteins in insect Sf21 cells. GST fusion proteins were purified by affinity chromatography on glutathione-Sepharose, and His6-tagged proteins on nickel/nitriloacetate-agarose. The procedures for expressing some of the protein kinases used herein have been detailed previously.^8,9 The following sections outline the DNA vectors synthesised and the procedures used to express and purifying protein kinases that have not been reported previously.
# (§2) All assays (25.5 μl) were carried out at room temperature (21° C.) and were linear with respect to time and enzyme concentration under the conditions used. Assays were performed for 30 min using Multidrop Micro reagent dispensers (Thermo Electron Corporation, Waltham, Mass. 02454, USA) in a 96-well format. The concentration of magnesium acetate in the assays was 10 mM and the [γ-33P] ATP (800 cpm/pmol) was used at 5, 20 or 50 μM as indicated, in order to be at or below the Km for ATP for each enzyme. Protein kinases assayed at 5 μM ATP were: —ERK1, ERK8, PKBα, MARK3, Aurora C. Protein kinases assayed at 20 μM ATP were: —JNK1, PDK1, CHK1, CHK2, CDK2 and Aurora B. Protein kinases assayed at 50 μM ATP were: —MNK2, IKKepsilon and TBK1.
# (§3) The assays were initiated with MgATP, stopped by addition of 5 μl of 0.5 M orthophosphoric acid and spotted on to P81 filterplates using a unifilter harvester (PerkinElmer, Boston, Mass. 02118, USA). The IC50 values of inhibitors were determined after carrying out assays at 10 different concentrations of each compound.
# (§4) Unless stated otherwise, enzymes were diluted in 50 mM Tris/HCl pH 7.5, 0.1 mM EGTA, 1 mg/ml BSA, 0.1% (v/v) 2-mercaptoethanol and assayed in 50 mM Tris/HCl pH 7.5, 0.1 mM EGTA, 0.1% (v/v) 2-mercaptoethanol.
# [2] = target: T2, CAMKKb (Homo sapiens, UniProt Q96RR4); test: CAMKKb protein kinase assay; format: biochemical; settings: CAMKKb, read-out: residual kinase activity; for remaining activity at 1 µM: 1 μM compound; for remaining activity at 10 µM: 10 μM compound
# T2 construct: All protein kinases were of human origin and encoded full length proteins, unless indicated otherwise; made in house
# T2 sequence (Q96RR4 whole entry): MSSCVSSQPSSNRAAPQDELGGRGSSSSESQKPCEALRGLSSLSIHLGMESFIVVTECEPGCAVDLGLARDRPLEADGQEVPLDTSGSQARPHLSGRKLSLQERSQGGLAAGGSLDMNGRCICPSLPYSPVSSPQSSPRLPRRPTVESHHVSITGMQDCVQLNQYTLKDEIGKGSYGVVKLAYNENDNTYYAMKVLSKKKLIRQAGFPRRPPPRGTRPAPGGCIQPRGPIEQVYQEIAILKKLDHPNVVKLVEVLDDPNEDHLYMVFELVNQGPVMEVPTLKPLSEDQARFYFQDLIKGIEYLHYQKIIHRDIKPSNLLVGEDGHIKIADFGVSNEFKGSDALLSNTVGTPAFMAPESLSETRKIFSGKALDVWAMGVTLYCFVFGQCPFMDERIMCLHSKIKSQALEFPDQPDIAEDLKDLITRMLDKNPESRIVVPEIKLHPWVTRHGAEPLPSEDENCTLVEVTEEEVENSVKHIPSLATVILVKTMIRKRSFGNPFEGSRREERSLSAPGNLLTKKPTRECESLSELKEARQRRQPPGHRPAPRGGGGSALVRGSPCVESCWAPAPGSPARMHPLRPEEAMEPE
# Excerpt: as §1, §2, §3, §4
# [3] = target: T3, CAMK1 (Homo sapiens, UniProt Q14012); test: CAMK1 protein kinase assay; format: biochemical; settings: CAMK1, read-out: residual kinase activity; for remaining activity at 1 µM: 1 μM compound; for remaining activity at 10 µM: 10 μM compound
# T3 construct: All protein kinases were of human origin and encoded full length proteins, unless indicated otherwise; made in house
# T3 sequence (Q14012 whole entry): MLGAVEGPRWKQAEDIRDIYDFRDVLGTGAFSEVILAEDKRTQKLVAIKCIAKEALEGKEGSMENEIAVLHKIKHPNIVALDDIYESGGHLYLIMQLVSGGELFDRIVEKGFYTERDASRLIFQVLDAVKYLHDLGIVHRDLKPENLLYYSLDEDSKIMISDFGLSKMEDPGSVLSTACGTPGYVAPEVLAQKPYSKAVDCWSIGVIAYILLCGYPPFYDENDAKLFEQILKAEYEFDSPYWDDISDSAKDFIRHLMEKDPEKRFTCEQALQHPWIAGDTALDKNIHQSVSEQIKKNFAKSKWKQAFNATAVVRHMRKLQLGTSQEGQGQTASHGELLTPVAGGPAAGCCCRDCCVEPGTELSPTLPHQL
# Excerpt: as §1, §2, §3, §4
# [4] = target: T4, PLK1 (Homo sapiens, UniProt P53350); test: PLK1 protein kinase assay; format: biochemical; settings: PLK1, read-out: residual kinase activity; for remaining activity at 1 µM: 1 μM compound; for remaining activity at 10 µM: 10 μM compound
# T4 construct: All protein kinases were of human origin and encoded full length proteins, unless indicated otherwise; made in house
# T4 sequence (P53350 whole entry): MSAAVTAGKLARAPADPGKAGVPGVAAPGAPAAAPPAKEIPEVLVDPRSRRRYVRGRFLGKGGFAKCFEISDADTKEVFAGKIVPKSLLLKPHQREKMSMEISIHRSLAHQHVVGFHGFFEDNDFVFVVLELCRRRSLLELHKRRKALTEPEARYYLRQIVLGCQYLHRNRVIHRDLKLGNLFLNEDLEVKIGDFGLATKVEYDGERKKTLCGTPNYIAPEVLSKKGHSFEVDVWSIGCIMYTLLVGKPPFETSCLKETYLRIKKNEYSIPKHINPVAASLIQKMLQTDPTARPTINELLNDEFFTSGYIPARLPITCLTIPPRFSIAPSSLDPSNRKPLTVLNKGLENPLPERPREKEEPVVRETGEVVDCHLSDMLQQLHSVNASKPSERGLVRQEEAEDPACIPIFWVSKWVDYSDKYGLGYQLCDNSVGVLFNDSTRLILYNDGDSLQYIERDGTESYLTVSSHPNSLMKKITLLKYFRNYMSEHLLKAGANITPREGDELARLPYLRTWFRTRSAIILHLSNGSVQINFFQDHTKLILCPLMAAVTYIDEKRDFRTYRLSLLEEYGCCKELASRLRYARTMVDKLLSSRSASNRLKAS
# Excerpt: as §1, §2, §3, §4
# [5] = tested on: AMPK; test: AMPK protein kinase assay; format: biochemical, human; settings: AMPK
# Excerpt: as §1, §2, §3, §4
# [6] = tested on: CK1; test: CK1 protein kinase assay; format: biochemical, human; settings: CK1
# Excerpt: as §1, §2, §3, §4
# [7] = target: T5, NEK2a (Homo sapiens, UniProt P51955); test: NEK2a protein kinase assay; format: biochemical; settings: NEK2a, read-out: residual kinase activity; for remaining activity at 1 µM: 1 μM compound; for remaining activity at 10 µM: 10 μM compound
# T5 construct: All protein kinases were of human origin and encoded full length proteins, unless indicated otherwise; made in house
# T5 sequence (P51955 1-445): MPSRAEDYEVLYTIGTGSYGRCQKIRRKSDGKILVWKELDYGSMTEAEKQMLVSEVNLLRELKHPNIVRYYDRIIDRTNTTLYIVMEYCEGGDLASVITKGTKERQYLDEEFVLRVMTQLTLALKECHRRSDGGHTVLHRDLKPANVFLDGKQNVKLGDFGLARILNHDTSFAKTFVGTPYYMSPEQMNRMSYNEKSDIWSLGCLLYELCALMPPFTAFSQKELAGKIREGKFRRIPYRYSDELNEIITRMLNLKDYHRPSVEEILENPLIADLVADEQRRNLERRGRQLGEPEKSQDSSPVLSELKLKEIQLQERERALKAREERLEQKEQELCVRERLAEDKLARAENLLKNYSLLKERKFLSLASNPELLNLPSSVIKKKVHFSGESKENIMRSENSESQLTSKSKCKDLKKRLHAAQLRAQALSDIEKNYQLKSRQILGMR
# Excerpt: as §1, §2, §3, §4
# [8] = target: T6, NEK6 (Homo sapiens, UniProt Q9HC98); test: NEK6 protein kinase assay; format: biochemical; settings: NEK6, read-out: residual kinase activity; for remaining activity at 1 µM: 1 μM compound; for remaining activity at 10 µM: 10 μM compound
# T6 construct: All protein kinases were of human origin and encoded full length proteins, unless indicated otherwise; made in house
# T6 sequence (Q9HC98 whole entry): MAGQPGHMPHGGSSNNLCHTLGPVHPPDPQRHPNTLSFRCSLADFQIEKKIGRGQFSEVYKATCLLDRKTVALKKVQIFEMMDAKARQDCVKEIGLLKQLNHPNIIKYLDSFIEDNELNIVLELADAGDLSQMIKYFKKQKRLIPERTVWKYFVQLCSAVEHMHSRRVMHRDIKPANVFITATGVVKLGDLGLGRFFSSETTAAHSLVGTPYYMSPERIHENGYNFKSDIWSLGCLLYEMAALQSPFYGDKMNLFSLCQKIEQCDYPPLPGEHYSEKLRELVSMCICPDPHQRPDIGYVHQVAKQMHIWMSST
# Excerpt: as §1, §2, §3, §4
# [9] = target: T7, Src (Homo sapiens, UniProt P12931); test: Src protein kinase assay; format: biochemical; settings: Src, read-out: residual kinase activity; for remaining activity at 1 µM: 1 μM compound; for remaining activity at 10 µM: 10 μM compound
# T7 construct: All protein kinases were of human origin and encoded full length proteins, unless indicated otherwise; made in house
# T7 sequence (P12931 whole entry): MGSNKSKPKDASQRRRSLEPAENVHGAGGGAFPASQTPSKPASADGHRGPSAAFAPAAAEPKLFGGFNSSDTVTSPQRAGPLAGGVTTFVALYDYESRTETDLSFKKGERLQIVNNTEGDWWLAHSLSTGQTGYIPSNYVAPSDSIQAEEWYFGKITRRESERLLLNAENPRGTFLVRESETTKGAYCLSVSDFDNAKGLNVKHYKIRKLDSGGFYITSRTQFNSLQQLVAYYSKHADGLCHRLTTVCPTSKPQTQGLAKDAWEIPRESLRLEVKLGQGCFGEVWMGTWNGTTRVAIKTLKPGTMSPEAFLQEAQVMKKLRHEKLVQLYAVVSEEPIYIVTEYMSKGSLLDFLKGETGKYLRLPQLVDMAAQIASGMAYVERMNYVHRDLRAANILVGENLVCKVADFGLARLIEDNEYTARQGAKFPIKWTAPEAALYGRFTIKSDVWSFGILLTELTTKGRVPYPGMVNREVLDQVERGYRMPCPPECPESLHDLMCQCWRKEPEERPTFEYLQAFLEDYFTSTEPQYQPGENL
# Excerpt: as §1, §2, §3, §4
# [10] = target: T8, FGF-R1 (Homo sapiens, UniProt P11362); test: FGF-R1 protein kinase assay; format: biochemical; settings: FGF-R1, read-out: residual kinase activity; for remaining activity at 1 µM: 1 μM compound; for remaining activity at 10 µM: 10 μM compound
# T8 construct: All protein kinases were of human origin and encoded full length proteins, unless indicated otherwise; made in house
# T8 sequence (P11362 400-820 limits assumed): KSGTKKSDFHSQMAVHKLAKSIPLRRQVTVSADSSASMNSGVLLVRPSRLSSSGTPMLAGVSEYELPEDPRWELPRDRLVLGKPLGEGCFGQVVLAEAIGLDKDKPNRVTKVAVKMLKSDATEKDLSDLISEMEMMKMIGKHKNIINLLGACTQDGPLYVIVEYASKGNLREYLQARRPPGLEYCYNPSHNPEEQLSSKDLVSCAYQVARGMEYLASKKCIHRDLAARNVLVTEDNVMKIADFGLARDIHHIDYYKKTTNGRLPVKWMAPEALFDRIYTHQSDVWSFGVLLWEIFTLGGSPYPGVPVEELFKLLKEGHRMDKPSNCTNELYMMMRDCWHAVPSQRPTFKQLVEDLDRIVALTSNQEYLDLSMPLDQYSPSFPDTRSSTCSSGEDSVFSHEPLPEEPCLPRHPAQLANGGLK
# Excerpt: as §1, §2, §3, §4
# [11] = target: T9, MST4 (Homo sapiens, UniProt Q9P289); test: MST4 protein kinase assay; format: biochemical; settings: MST4, read-out: residual kinase activity; for remaining activity at 1 µM: 1 μM compound; for remaining activity at 10 µM: 10 μM compound
# T9 construct: All protein kinases were of human origin and encoded full length proteins, unless indicated otherwise; made in house
# T9 sequence (Q9P289 whole entry): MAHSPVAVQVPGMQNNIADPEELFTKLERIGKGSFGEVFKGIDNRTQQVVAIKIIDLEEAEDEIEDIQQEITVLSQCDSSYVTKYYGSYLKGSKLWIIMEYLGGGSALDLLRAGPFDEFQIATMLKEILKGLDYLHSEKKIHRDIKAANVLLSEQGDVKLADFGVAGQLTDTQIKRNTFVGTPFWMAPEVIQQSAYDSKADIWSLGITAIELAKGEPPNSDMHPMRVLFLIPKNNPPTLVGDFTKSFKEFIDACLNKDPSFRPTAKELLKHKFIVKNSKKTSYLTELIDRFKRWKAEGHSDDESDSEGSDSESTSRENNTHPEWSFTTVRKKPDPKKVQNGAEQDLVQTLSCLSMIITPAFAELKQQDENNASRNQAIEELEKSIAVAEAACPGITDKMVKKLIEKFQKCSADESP
# Excerpt: as §1, §2, §3, §4
# [12] = tested on: IGF-1R; test: IGF-1R protein kinase assay; format: biochemical, human; settings: IGF-1R
# Excerpt: as §1, §2, §3, §4
Compound,remaining activity at 1 µM [1] [%],remaining activity at 10 µM [1] [%],remaining activity at 1 µM [2] [%],remaining activity at 10 µM [2] [%],remaining activity at 1 µM [3] [%],remaining activity at 10 µM [3] [%],remaining activity at 1 µM [4] [%],remaining activity at 10 µM [4] [%],residual kinase activity ([5]; 1 μM compound) [%],residual kinase activity ([5]; 10 μM compound) [%],residual kinase activity ([6]; 1 μM compound) [%],residual kinase activity ([6]; 10 μM compound) [%],remaining activity at 1 µM [7] [%],remaining activity at 10 µM [7] [%],remaining activity at 1 µM [8] [%],remaining activity at 10 µM [8] [%],remaining activity at 1 µM [9] [%],remaining activity at 10 µM [9] [%],remaining activity at 1 µM [10] [%],remaining activity at 10 µM [10] [%],further results
"O=C(NCCCNc1nc(Nc2cccc(N3CCCC3=O)c2)ncc1C1CC1)c1cccs1 [Example 47, Thiophene-2-carboxylic acid (3-{5-cyclopropyl-2-[3-(2-oxo-pyrrolidin-1-yl)-phenylamino]-pyrimidin-4-ylamino}-propyl)-amide. Hydrochloride salt]",70,76,61,36,91,73,88,75,77,30,102,106,104,79,65,65,80,67,78,31,remaining activity at 1 µM [11]: 124%; remaining activity at 10 µM [11]: 111%; residual kinase activity ([12]; 1 μM compound): 39%; residual kinase activity ([12]; 10 μM compound): 35%
"O=C(NCCCNc1nc(Nc2cccnc2)ncc1C1CC1)c1cccs1 [Example 50, Thiophene-2-carboxylic acid {3-[5-cyclopropyl-2-(pyridin-3-ylamino)-pyrimidin-4-ylamino]-propyl}-amide]",64,64,72,40,94,71,101,66,76,38,107,82,93,71,107,103,84,50,77,31,remaining activity at 1 µM [11]: 164%; remaining activity at 10 µM [11]: 120%; residual kinase activity ([12]; 1 μM compound): 47%; residual kinase activity ([12]; 10 μM compound): 32%
